These results are taken from the supplement of paper PMC11997997.

The test system of test [1] is murine bone marrow-derived macrophages. The test can be described thus: area under cytotoxicity dose-response curve (AUC (% cytotoxicity x dose, relative)); higher = more cytotoxic. The conditions noted are these: duration: 6 days; dose range: 0.13-80 uM, 8 points. Summed up:
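Cytotoxicity is expressed as the area under the dose–response curve from GraphPad Prism version 10. To obtain it, primary murine bone marrow-derived macrophages were incubated for 6 days at 37 °C in 5% CO2 across final concentrations of 80–0.13 μM. Viability came from CellTiter-Glo luminescence, and percent cytotoxicity was normalised to vehicle and positive control wells.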

The test system of test [2] is Mycobacterium tuberculosis CDC1551 (intracellular, in murine BMDM). The test can be described thus: area under intracellular growth-inhibition dose-response curve (AUC (% inhibition x dose, relative)); higher = more potent. Conditions: duration: 6 days; dose range: 0.13-80 uM, 8 points. Summed up: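 In 384-well opaque plates, primary murine bone marrow-derived macrophages were infected with luciferase-expressing M. tuberculosis CDC1551 (multiplicity of infection 1, 1 h) 24 h after seeding, then treated for 6 days across final concentrations of 80–0.13 μM. Growth was measured by Bright-Glo luciferin assay, normalised to a reference drug control and the lowest-concentration wells. The reported value is the area under the growth-inhibition dose–response curve from GraphPad Prism.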

For `COc1ccc(C=CC(C)=NNC(=O)c2ccncc2)cc1`, the “area under cytotoxicity dose-response curve” value in test [1] is less than 0. The “area under intracellular growth-inhibition dose-response curve” value in test [2] was determined as 254.
In the same order, the values of `CS(=O)(=O)c1ccc([C@@H](O)[C@@H](CF)NC(=O)C(Cl)Cl)cc1` are 62.1 and 78.9.
Regarding `CCN(CC)c1ccc(NC(=S)Nc2ccc(F)cc2)cc1`, the “area under cytotoxicity dose-response curve” value in test [1] is 90.6. Also, in test [2], the “area under intracellular growth-inhibition dose-response curve” value stood at 106.
Regarding `CN1/C(=C/C(=O)c2cccs2)Sc2ccccc21`, the “area under cytotoxicity dose-response curve” value in test [1] is 48. Also, the “area under intracellular growth-inhibition dose-response curve” value in test [2] came to 139.
On to `CC(NC(=S)Nc1ccc(OC(F)F)c(Cl)c1)C(C)(C)C` (stereo unspecified), for which the “area under cytotoxicity dose-response curve” value in test [1] amounted to 12.4. The “area under intracellular growth-inhibition dose-response curve” value in test [2] came out at 198.
On to `COc1c(/C=N/NC(=O)c2ccncc2)c(CCN(C)C(C)=O)cc2c1OCO2`, for which, in test [1], the “area under cytotoxicity dose-response curve” value turned out to be 96.3. In addition, the “area under intracellular growth-inhibition dose-response curve” value in test [2] was determined as 252.
Consider `Cc1cc(/C=N/NC(N)=S)c(C)n1-c1ccc(Br)cc1`, for which the “area under cytotoxicity dose-response curve” value in test [1] is less than 0. In addition, the “area under intracellular growth-inhibition dose-response curve” value in test [2] was 257.
In the case of `O=C(NN=Cc1ccc2c(c1)OCO2)c1ccncc1`, the “area under cytotoxicity dose-response curve” value in test [1] was determined as 65.5. In addition, the “area under intracellular growth-inhibition dose-response curve” value in test [2] was 238.
Take `O=C(NN=C1C2CC3CC(C2)CC1C3)c1ccncc1`: in test [1], the “area under cytotoxicity dose-response curve” value was found to be 103. Besides, the “area under intracellular growth-inhibition dose-response curve” value in test [2] worked out at 238.
As for `O=C(Nc1ccc(S(=O)(=O)Nc2nccs2)cc1)c1c(F)c(F)c(F)c(F)c1F`, the “area under cytotoxicity dose-response curve” value in test [1] is 64.8. Moreover, in test [2], the “area under intracellular growth-inhibition dose-response curve” value came to 82.5.
`Cc1cc(C)c2c(n1)sc1c(N3CCCCC3)ncnc12`: the “area under cytotoxicity dose-response curve” value in test [1] was 73.3. For the same molecule, the “area under intracellular growth-inhibition dose-response curve” value in test [2] stood at 142.
Regarding `CCOC(=O)C1=C(COC(=O)c2ccc(OC)c(S(=O)(=O)N3CCOCC3)c2)NC(=O)NC1C` (stereo unspecified), in test [1], the “area under cytotoxicity dose-response curve” value was 65.5. Moreover, the “area under intracellular growth-inhibition dose-response curve” value in test [2] came out at 56.9.
In the case of `CC(NC(=O)c1cccs1)c1ccc(Cl)cc1` (stereo unspecified), the “area under cytotoxicity dose-response curve” value in test [1] turned out to be 2.59. Further, in test [2], the “area under intracellular growth-inhibition dose-response curve” value was determined as 251.
For the molecule `Cc1ccc(C2=NCCn3c2c2ccc(C(F)(F)F)cc2[n+]3[O-])cc1`, in test [1], the “area under cytotoxicity dose-response curve” value was less than 0. In addition, the “area under intracellular growth-inhibition dose-response curve” value in test [2] worked out at 161.
Take `O=C(N/N=C/c1ccc(O)cc1)c1ccncc1`: the “area under cytotoxicity dose-response curve” value in test [1] came to 1.59. The “area under intracellular growth-inhibition dose-response curve” value in test [2] worked out at 168.
In the same order, the values of `Cc1ccc(/C=C2\SC(N3CCCC3)=NC2=O)cc1` are 22.9 and 220.
`CNC[C@@H](CC1CCCCC1)NC[C@H](CC(C)C)NCCc1cccc(C(F)(F)F)c1`: the “area under cytotoxicity dose-response curve” value in test [1] is 94. In addition, in test [2], the “area under intracellular growth-inhibition dose-response curve” value amounted to 197.
`O=C(NC1CCCC1)c1cc2ccccc2o1`: the “area under cytotoxicity dose-response curve” value in test [1] was found to be 56.4. Also, the “area under intracellular growth-inhibition dose-response curve” value in test [2] is 225.
Consider `O=C(NCc1ccccc1)C1COc2ccccc2O1` (stereo unspecified), for which the “area under cytotoxicity dose-response curve” value in test [1] came to 14.8. Moreover, in test [2], the “area under intracellular growth-inhibition dose-response curve” value came to 193.
Consider `O=[N+]([O-])C(=C\Nc1ccccc1O)/C=N/c1ccccc1O`, for which the “area under cytotoxicity dose-response curve” value in test [1] is 3.94. In test [2], the “area under intracellular growth-inhibition dose-response curve” value was determined as 57.2.
With `Cc1ccc(OCCCC(=O)Nc2ccc(S(=O)(=O)N3CCOCC3)cc2)cc1`, the “area under cytotoxicity dose-response curve” value in test [1] was 3.26. In test [2], the “area under intracellular growth-inhibition dose-response curve” value was determined as 53.8.
Regarding `CCN(CC)S(=O)(=O)c1ccc2c(c1)c(=O)c(C(=O)NCCc1ccccc1)cn2C`, the “area under cytotoxicity dose-response curve” value in test [1] came to 22.5. Moreover, the “area under intracellular growth-inhibition dose-response curve” value in test [2] came to 157.
Turning to `CSc1ccc(C(=O)C2CCCN(C(=O)c3ccc4c(c3)no[n+]4[O-])C2)cc1` (stereo unspecified), the “area under cytotoxicity dose-response curve” value in test [1] stood at 64.7. Further, the “area under intracellular growth-inhibition dose-response curve” value in test [2] amounted to 191.
In the case of `O=[N+]([O-])c1ccc(/C=N/Nc2nc(N3CCCCC3)nc(N3CCCCC3)n2)o1`, the “area under cytotoxicity dose-response curve” value in test [1] is less than 0. Moreover, the “area under intracellular growth-inhibition dose-response curve” value in test [2] stood at 226.
In the same order, the values of `CC1CCC(C(C)C)C(OC(=O)Cn2c(COc3ccccc3)[n+](C)c3ccccc32)C1.[Cl-]` (stereo unspecified) are 39.3 and 201.
For `O=C(COc1ccccc1)NC(=S)Nc1ccc2c(c1)Cc1ccccc1-2` the same measures were 74 and 190.
In the same order, the values of `Cc1nn(C(C)C(=O)NC2C(=O)N3C(C(=O)O)=C(CSc4nnnn4C)CSC23)cc1Cl` (stereo unspecified) are 9.03 and 194.
Turning to `O=C(NCc1cccs1)c1ccc(Br)o1`, the “area under cytotoxicity dose-response curve” value in test [1] is less than 0. Further, the “area under intracellular growth-inhibition dose-response curve” value in test [2] stood at 191.
For the molecule `Cc1nnc(N2CCCCC2)c2ccccc12`, the “area under cytotoxicity dose-response curve” value in test [1] came to 15.8. Also, in test [2], the “area under intracellular growth-inhibition dose-response curve” value is 117.
Consider `CC1(C)CC(=O)C=C(Nc2ccc(C(=O)O)c(O)c2)C1`, for which the “area under cytotoxicity dose-response curve” value in test [1] was less than 0. Also, in test [2], the “area under intracellular growth-inhibition dose-response curve” value turned out to be 195.
In the case of `Cc1nnc(SCC2=C(C(=O)O)N3C(=O)C(NC(=O)C(C)n4nc(C(F)(F)F)cc4C)C3SC2)s1` (stereo unspecified), the “area under cytotoxicity dose-response curve” value in test [1] is 2.61. Besides, the “area under intracellular growth-inhibition dose-response curve” value in test [2] was found to be 176.
For the molecule `CCOc1ccc(C(=O)NC(=S)Nc2ccc(N3CCC(C)CC3)cc2)cc1[N+](=O)[O-]`, the “area under cytotoxicity dose-response curve” value in test [1] is 81.7. For the same molecule, the “area under intracellular growth-inhibition dose-response curve” value in test [2] is 254.
On to `Cc1cnc(C(=O)OCC(=O)Nc2cccc3ccccc23)cn1`, for which, in test [1], the “area under cytotoxicity dose-response curve” value is less than 0. In test [2], the “area under intracellular growth-inhibition dose-response curve” value came to 15.8.
Regarding `O=C(CC1CC2CCC1C2)NCc1cccs1` (stereo unspecified), in test [1], the “area under cytotoxicity dose-response curve” value was found to be 65.1. In test [2], the “area under intracellular growth-inhibition dose-response curve” value worked out at 193.
On to `CCN1C(=O)C(O)(C2COC(C)(C)CC2=O)c2ccccc21` (stereo unspecified), for which, in test [1], the “area under cytotoxicity dose-response curve” value came to 41. Also, the “area under intracellular growth-inhibition dose-response curve” value in test [2] turned out to be 31.5.
On to `CC1CCN(C(=O)C2COc3ccccc3O2)CC1` (stereo unspecified), for which the “area under cytotoxicity dose-response curve” value in test [1] is less than 0. Further, the “area under intracellular growth-inhibition dose-response curve” value in test [2] stood at 265.
Take `CCOc1ccc(-c2cnc(NCc3cccc4ccccc34)n2CCOC)cc1.O=C(O)C(=O)O`: in test [1], the “area under cytotoxicity dose-response curve” value came out at 23.1. Also, the “area under intracellular growth-inhibition dose-response curve” value in test [2] turned out to be 66.2.
With `COc1ccc(C(C)NC(=O)c2ccccc2)cc1` (stereo unspecified), the “area under cytotoxicity dose-response curve” value in test [1] was 237. Besides, the “area under intracellular growth-inhibition dose-response curve” value in test [2] is 222.
For `Cc1nnc(SCC2=C(C(=O)O)N3C(=O)C(NC(=O)COc4ccccc4)C3SC2)s1` (stereo unspecified) the same measures were 73.9 and 151.
In the same order, the values of `O=C(COc1ccccc1)NCc1cccs1` are 14.2 and 130.
As for `Cc1ccc(-c2cc(-c3ccc(C)cc3)[n+](-c3ccccc3)c(-c3ccc(C)cc3)c2)cc1.[O-][Cl+3]([O-])([O-])[O-]`, the “area under cytotoxicity dose-response curve” value in test [1] was 85.5. For the same molecule, in test [2], the “area under intracellular growth-inhibition dose-response curve” value is 268.
Take `Cc1cc(C)cc(NC(=O)NC2CCCCCCC2)c1`: the “area under cytotoxicity dose-response curve” value in test [1] was 109. Besides, in test [2], the “area under intracellular growth-inhibition dose-response curve” value is 198.
For `COc1ccc(-c2ncn(CCC#N)c2[N+](=O)[O-])cc1` the same measures were 8.24 and 119.
Consider `C/C(=N/NC(=O)c1ccncc1)c1ccc2c(c1)OCO2`, for which the “area under cytotoxicity dose-response curve” value in test [1] amounted to 13.8. In addition, the “area under intracellular growth-inhibition dose-response curve” value in test [2] stood at 257.
For the molecule `CCCCCOc1ccc(C(=O)CCC(=O)NNC(=O)c2ccncc2)cc1`, the “area under cytotoxicity dose-response curve” value in test [1] amounted to 75.4. The “area under intracellular growth-inhibition dose-response curve” value in test [2] worked out at 224.
For the molecule `CC1CCC(C(C)C)C(OC(=O)C[n+]2c(-c3ccc(Br)cc3)n(C)c3ccccc32)C1.[Cl-]` (stereo unspecified), the “area under cytotoxicity dose-response curve” value in test [1] turned out to be 82.2. For the same molecule, the “area under intracellular growth-inhibition dose-response curve” value in test [2] was found to be 192.
As to `COc1ccc2nc(C)cc(N/N=C/c3cccc(OC)c3O)c2c1`, the “area under cytotoxicity dose-response curve” value in test [1] is 69. Also, in test [2], the “area under intracellular growth-inhibition dose-response curve” value worked out at 124.
As to `O=C(CC12CC3CC(CC(C3)C1)C2)NCc1ccco1`, the “area under cytotoxicity dose-response curve” value in test [1] was 60.5. The “area under intracellular growth-inhibition dose-response curve” value in test [2] was 224.
Regarding `CCOc1ccc(NC(=O)CCc2nnc3ccc(N4CCC(C)CC4)nn23)cc1`, the “area under cytotoxicity dose-response curve” value in test [1] stood at 65.6. Besides, the “area under intracellular growth-inhibition dose-response curve” value in test [2] came out at 30.4.
As to `N#Cc1ccc(C(=O)NCC2CCCCC2)cc1`, in test [1], the “area under cytotoxicity dose-response curve” value came out at 44.2. Further, the “area under intracellular growth-inhibition dose-response curve” value in test [2] is 107.
For the molecule `CC1CCN(Cc2nc(-c3ccccc3)no2)CC1.Cl`, in test [1], the “area under cytotoxicity dose-response curve” value was determined as 111. Besides, in test [2], the “area under intracellular growth-inhibition dose-response curve” value is 175.
In the same order, the values of `Cc1ccc(-c2nnc(NC(=O)c3ccc([N+](=O)[O-])o3)o2)c(C)c1` are 91.5 and 78.2.
As to `COc1ccc(NS(=O)(=O)c2ccc(N3CCOCC3)c(N)c2)cc1`, in test [1], the “area under cytotoxicity dose-response curve” value was less than 0. In test [2], the “area under intracellular growth-inhibition dose-response curve” value is 34.5.
